The numbers were not newly measured in patent publication US9833455B2, “Preparation and methods of use for ortho-aryl 5-membered heteroaryl-carboxamide containing multi-targeted kinase inhibitors” (Spacefill Enterprises LLC, priority 2011, dated 2017), which cites them from elsewhere.

SMILES strings stand for the structures.

Conditions in all cases: 1 μM, duplicate, without preincubation; cited from earlier work
One series deals with T1, BRAF (Homo sapiens, UniProt P15056).
T1 construct: literature Ambit Biosciences

A further series has as its target T2, CDK11 (Homo sapiens, UniProt Q9BWU1).
T2 construct: literature Ambit Biosciences

In the next series the target is T3, DCAMKL1 (Homo sapiens, UniProt O15075).
T3 construct: literature Ambit Biosciences
T3 sequence (O15075 1-740): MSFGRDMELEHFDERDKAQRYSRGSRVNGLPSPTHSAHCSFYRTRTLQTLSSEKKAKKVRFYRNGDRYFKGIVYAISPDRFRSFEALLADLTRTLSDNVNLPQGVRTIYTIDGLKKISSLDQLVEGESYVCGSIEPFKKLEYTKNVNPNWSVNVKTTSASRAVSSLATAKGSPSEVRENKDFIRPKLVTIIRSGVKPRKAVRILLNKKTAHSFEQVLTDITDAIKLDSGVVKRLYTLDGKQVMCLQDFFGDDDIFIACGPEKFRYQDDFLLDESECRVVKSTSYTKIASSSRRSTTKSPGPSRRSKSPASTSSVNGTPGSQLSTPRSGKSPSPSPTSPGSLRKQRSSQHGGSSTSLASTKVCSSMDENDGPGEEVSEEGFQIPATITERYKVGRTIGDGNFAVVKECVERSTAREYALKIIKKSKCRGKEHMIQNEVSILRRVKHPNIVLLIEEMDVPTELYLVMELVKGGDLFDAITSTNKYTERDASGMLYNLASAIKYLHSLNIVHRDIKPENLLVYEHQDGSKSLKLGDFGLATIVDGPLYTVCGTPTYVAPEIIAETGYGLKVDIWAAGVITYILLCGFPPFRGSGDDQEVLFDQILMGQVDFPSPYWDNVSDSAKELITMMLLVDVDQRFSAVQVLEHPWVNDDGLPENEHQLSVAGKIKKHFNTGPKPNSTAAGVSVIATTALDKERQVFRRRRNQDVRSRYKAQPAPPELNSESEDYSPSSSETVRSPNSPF

The target of a further series is KIT (Homo sapiens, UniProt P10721).
The target in a further series is T4, MKNK1 (Homo sapiens, UniProt Q9BUB5).
T4 construct: literature Ambit Biosciences

Another series concerns the target T5, p38-alpha (Homo sapiens, UniProt Q16539).
T5 construct: literature Ambit Biosciences

The next series addresses T6, p38-beta (Homo sapiens, UniProt Q15759).
T6 construct: literature Ambit Biosciences

A further series concerns the target T7, PDGFRA (Homo sapiens, UniProt P16234).
T7 construct: literature Ambit Biosciences

The next series concerns the target T8, PIK3CA (Homo sapiens, UniProt P42336).
T8 construct: literature Ambit Biosciences

A further series has as its target T9, PLK4 (Homo sapiens, UniProt O00444).
T9 construct: literature Ambit Biosciences
T9 sequence (O00444 1-970): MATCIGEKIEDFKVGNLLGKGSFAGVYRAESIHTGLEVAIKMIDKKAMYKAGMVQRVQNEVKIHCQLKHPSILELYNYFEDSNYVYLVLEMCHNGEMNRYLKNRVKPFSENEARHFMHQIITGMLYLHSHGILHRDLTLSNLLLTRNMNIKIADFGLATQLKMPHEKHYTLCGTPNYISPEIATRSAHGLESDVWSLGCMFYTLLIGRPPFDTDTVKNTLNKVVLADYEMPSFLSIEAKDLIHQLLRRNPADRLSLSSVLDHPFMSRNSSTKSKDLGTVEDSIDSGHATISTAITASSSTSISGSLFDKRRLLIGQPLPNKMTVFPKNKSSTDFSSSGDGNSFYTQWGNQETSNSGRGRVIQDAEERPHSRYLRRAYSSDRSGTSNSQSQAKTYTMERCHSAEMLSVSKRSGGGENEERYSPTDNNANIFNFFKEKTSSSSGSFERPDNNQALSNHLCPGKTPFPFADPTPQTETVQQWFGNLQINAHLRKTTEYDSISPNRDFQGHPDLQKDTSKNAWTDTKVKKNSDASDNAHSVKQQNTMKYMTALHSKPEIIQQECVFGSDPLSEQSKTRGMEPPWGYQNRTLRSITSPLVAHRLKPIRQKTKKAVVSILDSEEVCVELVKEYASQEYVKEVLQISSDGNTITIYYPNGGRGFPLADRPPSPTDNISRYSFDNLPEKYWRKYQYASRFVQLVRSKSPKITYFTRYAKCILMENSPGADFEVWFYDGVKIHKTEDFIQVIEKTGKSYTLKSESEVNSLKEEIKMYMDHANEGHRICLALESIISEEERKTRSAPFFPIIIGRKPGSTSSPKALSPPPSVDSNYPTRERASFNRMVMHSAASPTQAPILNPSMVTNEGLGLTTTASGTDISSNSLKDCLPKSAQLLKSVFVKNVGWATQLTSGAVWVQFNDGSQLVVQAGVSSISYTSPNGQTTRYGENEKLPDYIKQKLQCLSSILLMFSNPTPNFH

The target of a further series is T10, RIOK2 (Homo sapiens, UniProt Q9BVS4).
T10 construct: literature Ambit Biosciences

In a further series the target is T11, TYK2 (catalytic) (Homo sapiens, UniProt P29597).
T11 construct: catalytic; literature Ambit Biosciences

The target in the next series is BRAF(V600E) (Homo sapiens, UniProt P15056, V600E). Set-up: literature Ambit Biosciences.

T10 sequence (Q9BVS4 whole entry): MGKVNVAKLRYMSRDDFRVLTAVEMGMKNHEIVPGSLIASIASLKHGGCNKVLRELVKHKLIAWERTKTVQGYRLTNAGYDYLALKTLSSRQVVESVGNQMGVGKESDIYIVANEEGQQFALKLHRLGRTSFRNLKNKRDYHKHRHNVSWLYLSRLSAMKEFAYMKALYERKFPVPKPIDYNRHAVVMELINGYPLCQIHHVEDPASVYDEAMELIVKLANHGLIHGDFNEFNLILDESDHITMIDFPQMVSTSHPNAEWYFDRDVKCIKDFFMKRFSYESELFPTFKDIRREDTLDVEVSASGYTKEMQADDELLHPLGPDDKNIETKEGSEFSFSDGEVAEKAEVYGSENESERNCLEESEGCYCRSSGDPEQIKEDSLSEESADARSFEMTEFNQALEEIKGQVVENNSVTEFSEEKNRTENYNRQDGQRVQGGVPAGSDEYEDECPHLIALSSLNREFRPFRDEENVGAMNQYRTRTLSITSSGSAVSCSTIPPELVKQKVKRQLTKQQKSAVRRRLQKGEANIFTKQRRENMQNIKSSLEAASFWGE
Chain of KIT (P10721 26-976): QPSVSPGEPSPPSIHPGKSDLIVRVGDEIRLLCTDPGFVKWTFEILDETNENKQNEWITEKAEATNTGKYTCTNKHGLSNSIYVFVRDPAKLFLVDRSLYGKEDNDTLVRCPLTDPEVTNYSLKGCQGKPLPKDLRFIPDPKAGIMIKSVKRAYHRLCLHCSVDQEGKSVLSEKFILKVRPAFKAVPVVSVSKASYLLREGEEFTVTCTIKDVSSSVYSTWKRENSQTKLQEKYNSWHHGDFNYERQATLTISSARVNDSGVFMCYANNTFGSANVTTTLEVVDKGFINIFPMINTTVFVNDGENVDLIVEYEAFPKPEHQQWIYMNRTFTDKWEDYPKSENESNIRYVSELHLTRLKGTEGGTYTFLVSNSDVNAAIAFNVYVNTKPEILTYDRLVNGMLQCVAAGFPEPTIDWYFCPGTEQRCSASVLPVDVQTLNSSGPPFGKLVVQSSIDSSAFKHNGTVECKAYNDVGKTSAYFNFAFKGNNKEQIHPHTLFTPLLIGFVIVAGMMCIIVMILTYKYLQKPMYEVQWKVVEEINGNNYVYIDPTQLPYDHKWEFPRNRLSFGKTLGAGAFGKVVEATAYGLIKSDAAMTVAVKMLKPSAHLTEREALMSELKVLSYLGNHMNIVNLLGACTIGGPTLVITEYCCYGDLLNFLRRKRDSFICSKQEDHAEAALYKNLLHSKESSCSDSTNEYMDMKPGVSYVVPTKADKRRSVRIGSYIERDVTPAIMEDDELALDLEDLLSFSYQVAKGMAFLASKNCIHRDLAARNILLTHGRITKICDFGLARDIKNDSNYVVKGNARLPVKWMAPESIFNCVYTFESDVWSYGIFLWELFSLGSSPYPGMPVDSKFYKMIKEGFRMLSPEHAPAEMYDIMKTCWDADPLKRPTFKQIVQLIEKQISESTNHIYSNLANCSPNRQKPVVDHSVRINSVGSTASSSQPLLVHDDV
T6 sequence (Q15759 whole entry): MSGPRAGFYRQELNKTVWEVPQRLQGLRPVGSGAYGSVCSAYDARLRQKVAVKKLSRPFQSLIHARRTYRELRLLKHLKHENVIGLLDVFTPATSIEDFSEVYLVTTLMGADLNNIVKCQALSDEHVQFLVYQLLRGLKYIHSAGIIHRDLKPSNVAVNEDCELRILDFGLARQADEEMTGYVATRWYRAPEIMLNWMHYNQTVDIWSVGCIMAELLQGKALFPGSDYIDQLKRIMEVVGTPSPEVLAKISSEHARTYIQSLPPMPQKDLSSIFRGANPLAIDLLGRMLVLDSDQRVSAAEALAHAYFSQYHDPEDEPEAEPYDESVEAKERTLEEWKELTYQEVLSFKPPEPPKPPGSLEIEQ
T4 sequence (Q9BUB5 whole entry): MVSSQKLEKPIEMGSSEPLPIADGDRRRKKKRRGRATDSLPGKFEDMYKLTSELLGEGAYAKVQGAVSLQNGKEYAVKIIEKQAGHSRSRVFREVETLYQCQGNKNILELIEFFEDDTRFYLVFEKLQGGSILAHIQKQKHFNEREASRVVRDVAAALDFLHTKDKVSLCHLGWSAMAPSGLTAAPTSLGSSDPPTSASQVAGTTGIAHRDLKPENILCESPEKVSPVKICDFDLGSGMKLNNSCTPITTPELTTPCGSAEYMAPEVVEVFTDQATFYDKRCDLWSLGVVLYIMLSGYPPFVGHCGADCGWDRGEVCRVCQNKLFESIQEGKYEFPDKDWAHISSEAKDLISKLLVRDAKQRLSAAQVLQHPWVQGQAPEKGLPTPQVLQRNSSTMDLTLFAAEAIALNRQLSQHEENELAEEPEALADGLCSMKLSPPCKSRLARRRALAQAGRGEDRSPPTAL
T2 sequence (Q9BWU1 whole entry): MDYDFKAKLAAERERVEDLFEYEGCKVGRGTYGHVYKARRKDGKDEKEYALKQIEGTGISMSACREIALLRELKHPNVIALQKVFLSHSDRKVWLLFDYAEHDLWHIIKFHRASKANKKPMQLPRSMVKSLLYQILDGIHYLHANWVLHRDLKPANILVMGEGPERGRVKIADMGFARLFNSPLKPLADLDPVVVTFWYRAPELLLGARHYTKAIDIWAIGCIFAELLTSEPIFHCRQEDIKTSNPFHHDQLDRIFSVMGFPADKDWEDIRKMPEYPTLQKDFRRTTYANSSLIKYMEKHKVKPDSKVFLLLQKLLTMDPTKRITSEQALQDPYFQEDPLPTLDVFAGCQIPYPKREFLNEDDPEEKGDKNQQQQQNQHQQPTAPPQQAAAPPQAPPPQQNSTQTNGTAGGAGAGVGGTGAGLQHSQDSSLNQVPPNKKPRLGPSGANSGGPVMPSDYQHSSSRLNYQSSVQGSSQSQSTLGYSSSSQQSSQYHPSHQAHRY
T7 sequence (P16234 24-1089): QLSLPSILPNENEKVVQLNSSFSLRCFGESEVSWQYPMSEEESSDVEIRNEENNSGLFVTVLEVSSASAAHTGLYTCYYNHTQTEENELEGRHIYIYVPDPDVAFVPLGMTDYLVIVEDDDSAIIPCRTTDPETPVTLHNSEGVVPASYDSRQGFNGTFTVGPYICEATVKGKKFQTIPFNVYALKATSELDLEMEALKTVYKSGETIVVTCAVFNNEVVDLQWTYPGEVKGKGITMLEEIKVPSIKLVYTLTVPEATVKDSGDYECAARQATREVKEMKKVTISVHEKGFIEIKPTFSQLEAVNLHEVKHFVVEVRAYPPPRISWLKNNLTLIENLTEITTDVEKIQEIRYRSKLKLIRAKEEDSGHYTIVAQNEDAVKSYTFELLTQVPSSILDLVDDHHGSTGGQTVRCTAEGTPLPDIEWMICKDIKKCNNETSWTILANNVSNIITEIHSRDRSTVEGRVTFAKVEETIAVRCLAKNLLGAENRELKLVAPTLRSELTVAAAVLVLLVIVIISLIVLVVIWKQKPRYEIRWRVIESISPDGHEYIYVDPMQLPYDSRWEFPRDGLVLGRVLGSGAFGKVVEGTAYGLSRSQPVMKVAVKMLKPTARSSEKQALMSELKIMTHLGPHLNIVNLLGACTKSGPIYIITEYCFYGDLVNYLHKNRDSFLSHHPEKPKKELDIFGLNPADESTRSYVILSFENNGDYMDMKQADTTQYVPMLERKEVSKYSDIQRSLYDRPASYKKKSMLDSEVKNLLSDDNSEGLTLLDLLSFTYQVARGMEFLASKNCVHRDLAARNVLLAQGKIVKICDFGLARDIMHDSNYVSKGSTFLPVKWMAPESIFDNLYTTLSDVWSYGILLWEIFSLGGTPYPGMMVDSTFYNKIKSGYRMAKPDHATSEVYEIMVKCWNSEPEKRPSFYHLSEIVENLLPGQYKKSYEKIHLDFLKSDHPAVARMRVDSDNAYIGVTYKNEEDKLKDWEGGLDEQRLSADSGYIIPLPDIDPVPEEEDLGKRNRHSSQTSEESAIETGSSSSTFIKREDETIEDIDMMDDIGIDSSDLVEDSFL
T5 sequence (Q16539 whole entry): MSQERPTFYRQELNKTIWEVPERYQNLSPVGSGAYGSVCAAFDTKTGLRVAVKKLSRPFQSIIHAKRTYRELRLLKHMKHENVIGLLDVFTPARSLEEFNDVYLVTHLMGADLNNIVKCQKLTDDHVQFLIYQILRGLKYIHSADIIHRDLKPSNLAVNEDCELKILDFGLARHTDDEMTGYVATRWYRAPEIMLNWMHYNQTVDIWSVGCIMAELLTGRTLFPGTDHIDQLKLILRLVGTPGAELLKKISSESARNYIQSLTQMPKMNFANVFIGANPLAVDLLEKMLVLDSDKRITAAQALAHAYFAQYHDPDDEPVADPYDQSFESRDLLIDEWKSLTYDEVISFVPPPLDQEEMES
T11 sequence (P29597 897-1176 limits assumed): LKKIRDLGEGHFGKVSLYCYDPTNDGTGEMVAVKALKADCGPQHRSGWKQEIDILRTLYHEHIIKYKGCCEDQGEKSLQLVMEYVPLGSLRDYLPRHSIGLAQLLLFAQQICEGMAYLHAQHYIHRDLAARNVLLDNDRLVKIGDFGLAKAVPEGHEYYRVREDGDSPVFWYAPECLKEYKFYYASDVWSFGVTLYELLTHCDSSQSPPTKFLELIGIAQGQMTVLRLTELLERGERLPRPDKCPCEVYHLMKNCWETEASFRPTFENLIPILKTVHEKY

Consider `Cc1ccc(-c2nc(C(F)(F)F)[nH]c2C(=O)Nc2ccc(C)c(Nc3ccc4ncn(C)c(=O)c4c3)c2)cc1F` [KIN-038], for which the “inhibition of BRAF” value at BRAF was “XXX (XXX > 75% @ 1 μM)”. Further, the “inhibition of CDK11” value on CDK11 was “X (X > 25% @ 1 μM)”. In addition, on DCAMKL1, the “inhibition of DCAMKL1” value is “X (X > 25% @ 1 μM)”. Also, the “inhibition of KIT” value on KIT is given as “XXXX (XXXX > 90% @ 1 μM)”. At MKNK1, the “inhibition of MKNK1” value is “X (X > 25% @ 1 μM)”. The “inhibition of p38-alpha” value at p38-alpha is recorded as “XX (XX > 50% @ 1 μM)”. The “inhibition of p38-beta” value at p38-beta is “X (X > 25% @ 1 μM)”. For the same compound, the “inhibition of PDGFRA” value on PDGFRA was “XX (XX > 50% @ 1 μM)”. Besides, the “inhibition of PIK3CA” value at PIK3CA is “X (X > 25% @ 1 μM)”. In addition, the “inhibition of PLK4” value on PLK4 is on record as “X (X > 25% @ 1 μM)”. For the same compound, the “inhibition of RIOK2” value at RIOK2 was “X (X > 25% @ 1 μM)”. For the same compound, the “inhibition of TYK2 (catalytic)” value on TYK2 (catalytic) was “X (X > 25% @ 1 μM)”. In addition, the “inhibition of BRAF(V600E)” value at BRAF(V600E) is reported as “XXXX (XXXX > 90% @ 1 μM)”.
In the case of `Cc1ccc(NC(=O)c2[nH]c(C(F)(F)F)nc2-c2ccc(F)cc2)cc1Nc1ccc2ncn(C)c(=O)c2c1` [KIN-035], the “inhibition of BRAF” value on BRAF is listed as “XXXX (XXXX > 90% @ 1 μM)”. For the same compound, the “inhibition of CDK11” value on CDK11 was “XX (XX > 50% @ 1 μM)”. The “inhibition of DCAMKL1” value on DCAMKL1 was “X (X > 25% @ 1 μM)”. In addition, the “inhibition of KIT” value at KIT was “XXXX (XXXX > 90% @ 1 μM)”. The “inhibition of MKNK1” value on MKNK1 is “XX (XX > 50% @ 1 μM)”. Further, the “inhibition of p38-alpha” value at p38-alpha is on record as “XXXX (XXXX > 90% @ 1 μM)”. For the same compound, the “inhibition of p38-beta” value on p38-beta is “X (X > 25% @ 1 μM)”. Besides, the “inhibition of PDGFRA” value at PDGFRA is “XX (XX > 50% @ 1 μM)”. Also, on PIK3CA, the “inhibition of PIK3CA” value is recorded as “X (X > 25% @ 1 μM)”. The “inhibition of PLK4” value at PLK4 is given as “X (X > 25% @ 1 μM)”. At RIOK2, the “inhibition of RIOK2” value was “X (X > 25% @ 1 μM)”. Besides, at TYK2 (catalytic), the “inhibition of TYK2 (catalytic)” value was “X (X > 25% @ 1 μM)”. Besides, the “inhibition of BRAF(V600E)” value on BRAF(V600E) is given as “XXXX (XXXX > 90% @ 1 μM)”.
